Values joined by “and” are separate entries in the source; they are usually repeats but may differ in a detail not shown here. Equal entries are not always repeated.
Tests used:
human lung cancer A549 = test: MTT antiproliferative assay, A549; format: cell-based; conditions: 48 h, mean ± SD, three independent experiments
Description: (§1) These cell lines were cultured in Dulbecco's Modified Eagle Medium containing 10% (v/v) fetal bovine serum (FBS, Wisent) and 1% (v/v) Penicillin-Streptomycin Solution mixture (Beyotime, Shanghai, China) at 37 °C under 5% CO2. An MTT assay evaluated the cytotoxicity of lupeol derivatives toward the A549, MCF-7, HepG2, and LO2 cell lines. The cells were inoculated into 96-well plates (3 × 10^3 cells/well) and cultured for 24 h at 37 °C in 5% CO2. After that, a gradient concentration of the test drug was added to continue the incubation for 48 h. Subsequently, the MTT solution continued to incubate with the cells for 4 h. Afterward, the upper waste layer was discarded, and DMSO was added ([…], Tianjin, China). After the formazan completely dissolved, the absorbance of each well at 490 nm was measured with a microplate reader. The mean values were derived from three independent experiments.

[1] = tested on: human breast cancer MCF-7; test: MTT antiproliferative assay, MCF-7; format: cell-based; conditions: 48 h, mean ± SD, three independent experiments
Description: as §1

[2] = tested on: human hepatocarcinoma HepG2; test: MTT antiproliferative assay, HepG2; format: cell-based
Description: as §1

human hepatic LO2 cells = tested on: human hepatic LO2 cells
Description: as §1

HepG2 cells [3] = test: Annexin V-FITC/PI double staining, flow cytometry; format: cell-based, human; conditions: HepG2, 48 h, blank control 5.75%
Description: (§2) To further evaluate compound 12i-induced HepG2 cell apoptosis, HepG2 cells were treated with this compound (at 0, 2, 4, and 8 μM), followed by staining with Acridine Orange/Ethidium bromide (AO/EB). […] Subsequently, we used Annexin V-FITC/PI double staining to characterize the effect of compound 12i based on the total apoptosis rate of HepG2 cells.
HepG2 cells were inoculated into 6-well plates for 24 h, attached via cell adhesion, and then treated with 12i (0, 2, 4, and 8 μM) for 48 h. The cells were harvested and treated with Annexin V-FITC/PI staining solution, and the data were gathered using a flow cytometer (FACS Calibur, BD, Milpitas, CA, USA).

HepG2 cells [4] = conditions: HepG2, 2, 4 and 8 μM, increasing concentration
Description: as §2

HepG2 cells [5] = test: Mitochondrial membrane potential, JC-1 staining; format: cell-based, human
Source text: MMP depolarization is one of the landmark events of apoptosis. To investigate the impact of 12i on MMP depolarization in HepG2 cells, we used 5,5′,6,6,6,6′-tetrachloro-1,1′,3,3′-tetraethylioiodine carbocyan (JC-1) staining. When the mitochondrial membrane potential is high, JC-1 aggregates in the substrate to form a polymer (J-aggregates), which produces red fluorescence. When the mitochondrial membrane potential is low, JC-1 cannot accumulate in the mitochondrial matrix and exists as a monomer to produce green fluorescence.
HepG2 cells were inoculated into 6-well plates for 24 h, attached via cell adhesion, and then treated with 12i (0, 2, 4, and 8 μM) for 48 h. The cells were cleaned with PBS and treated with JC-1 solution at 25 °C for 20 min, and the data were gathered using a flow cytometer.
HepG2 cells were inoculated into 6-well plates for 24 h, attached via cell adhesion, and then treated with 12i (0, 2, 4, and 8 μM) for 48 h. The cells were cleaned with PBS and treated with JC-1 solution at 25 °C for 20 min, and the samples were collected and imaged using confocal microscopy.

[6] = tested on: Bax, Bcl-2, cleaved caspase-7, cleaved caspase-9 in HepG2 cells; conditions: HepG2, 2, 4 and 8 μM, 48 h, Western blot
Description: The GAPDH expression level was used as an internal control group.
(§3) HepG2 cells were seeded in 6-well plates at a density of 1 × 10^6 overnight and treated with 12i (2, 4, and 8 μM) for 48 h. They were then washed twice with cooled PBS to remove the medium and lysed using a lysis buffer containing RIPA (Beyotime, Shanghai, China). The protein levels were quantified using a bicinchoninic acid protein assay kit (Beyotime, Shanghai, China). The proteins were separated via SDS-PAGE electrophoresis and transferred to PVDF membranes (Beyotime, Shanghai, China). After blocking with 5% skim milk for 2 h, the membranes were incubated with the primary antibody overnight at 4 °C, followed by 2 h with the specific secondary antibody. The antibodies were sourced commercially, including Bax (5023T, Cell Signaling Technology, Danvers, MA, USA), Bcl2 (3498T, Cell Signaling Technology, Danvers, MA, USA), Caspase-7 (12827T, Cell Signaling Technology, Danvers, MA, USA), Caspase-9 (9508T, Cell Signaling Technology, Danvers, MA, USA), Cleaved-Caspase-7 (8438T, Cell Signaling Technology, Danvers, MA, USA), Cleaved-Caspase-9 (7237T, Cell Signaling Technology, Danvers, MA, USA), GAPDH (2118T, Cell Signaling Technology, Danvers, MA, USA), PI3K (4249T, Cell Signaling Technology, Danvers, MA, USA), p-PI3K (4228T, Cell Signaling Technology, Danvers, MA, USA), AKT (4691T, Cell Signaling Technology, Danvers, MA, USA), p-AKT (4060T, Cell Signaling Technology, Danvers, MA, USA), mTOR (2972T, Cell Signaling Technology, Danvers, MA, USA). Immunoreactive bands were visualized using BeyoECL Plus (Beyotime, Shanghai, China) and scanned in a ChemiDoc MP Imaging System (Bio-Rad, Shanghai, China).

[7] = tested on: P-Akt, P-PI3K, P-mTOR in HepG2 cells; conditions: HepG2, 2, 4 and 8 μM, 48 h, Western blot, dose-dependent
Description: Therefore, Western blotting was conducted to determine the expression of the key proteins Akt, P-Akt, PI3K, P-PI3K, mTOR, and P-mTOR.
as §3

HepG2 cells [8] = conditions: HepG2, 2, 4 and 8 μM, 48 h, DCFH-DA
Description: After the cells were washed with PBS, the supernatant was removed and incubated with 500 μL of 10 μm/L DCFH-DA solution at 25 °C for 20 min, and the data were gathered using a flow cytometer.
After the cells were washed with PBS, the supernatant was removed and incubated with 500 μL of 10 μm/L DCFH-DA solution at 25 °C for 20 min, and the samples were collected and imaged using confocal microscopy.

In the case of C=C(C)C1CCC2(C)CCC3(C)C(CCC4C5(C)CCC(OC(=O)NCCNC(=O)CN6C(=O)SC(=CC(C)C)C6=O)C(C)(C)C5CCC43C)C12 (centres unmarked) [Compound 12i, Lupeol-3-[(1-Ethylenediaminyl)-4]-5-(2-Methylpropylidene)-2,4-Thiazolidinedione], the IC50 (human lung cancer A549) is reported as 10.1 ± 0.62 µM, the IC50 [1] is reported as 8.74 ± 0.34 µM and the “potency against HepG2 relative to lupeol” value ([2]; HepG2, IC50 lupeol / IC50 compound) is reported as 9.9 fold and 9.91 fold. For the same molecule, the IC50 ([2]; MTT, 48 h, mean ± SD, three independent experiments) was 4.4 ± 0.02 µM, the “cytotoxicity to human hepatic cell LO2 (in words)” value (human hepatic LO2 cells) was “weakly cytotoxic” and the IC50 (human hepatic LO2 cells; read-out: IC50 LO2, MTT, 48 h, mean ± SD, three independent experiments) was 29.2 ± 0.53 µM. It also gave a total apoptosis rate (HepG2 cells [3]; 2 μM) of 11.46%, a total apoptosis rate (HepG2 cells [3]; 4 μM) of 22.40% and a total apoptosis rate (HepG2 cells [3]; 8 μM) of 60.50%. For the same molecule, the “morphological variations after AO/EB staining” value (HepG2 cells [4]) was “the green fluorescence gradually weakened and turned orange–red”, the “effect on mitochondrial membrane potential (Δψm)” value (HepG2 cells [5]; HepG2, 2, 4 and 8 μM, JC-1 fluorescence microscopy) was “significantly reduce Δψm” and the “monomer rate of JC-1” value (HepG2 cells [5]; HepG2, 48 h, 8 μM, blank control 1.95%) was 35.8%. The Bax expression ([6]; GAPDH internal control) was “upregulate”, the Bcl-2 expression ([6]; GAPDH internal control) was “downregulate” and the “cleaved caspase-7 expression level” value ([6]; dose dependently) was “activated”. For the same molecule, the “cleaved caspase-9 expression level” value ([6]; dose dependently) was “activated”, the “phosphorylation level of P-Akt” value [7] was “reduce the phosphorylation levels” and the “phosphorylation level of P-PI3K” value [7] was “reduce the phosphorylation levels”. The “phosphorylation level of P-mTOR” value [7] was “reduce the phosphorylation levels” and the ROS production (HepG2 cells [8]) was “induces ROS production dose-dependently”.

— article PMC11510666, “Thiazolidinedione-Conjugated Lupeol Derivatives as Potent Anticancer Agents Through a Mitochondria-Mediated Apoptotic Pathway” (Molecules, 2024)
